According to US12404262B2 (priority 2021, dated 2025):
Converted amounts (≈) assume the structure as drawn. Blank lines part the entries; values can stand above or below the compound they belong to.

Assays:
[1] = Solubility in simulated intestinal fluids (FaSSIF/FeSSIF); conditions: 25 °C, thermodynamic from solid
[2] = 1.0% DMSO, 24-hour incubation at ambient temperature, maximum theoretical 100 μM; for pH 2 solubility: 0.1N HCl, first value of the cell; for pH 7 solubility: 1×PBS buffer (pH 7.4), second value of the cell
[3] = fasted state simulated intestinal fluid (FaSSIF), fassif
[4] = fed state simulated intestinal fluid (FeSSIF), fessif

solubility [1, 3]: 813 µg/mL (≈ 740 µM) | solubility [1, 4]: 120 µg/mL (≈ 109 µM) | pH 2 solubility [2]: 1 μM | pH 7 solubility [2]: 8 μM
SMILES: CC(C)(C#Cc1ccc(-c2ccc(Cl)c3c(N(C(=O)N[C@@H](CO)C(=O)O)S(C)(=O)=O)nn(CC(F)(F)F)c23)c([C@H](Cc2cc(F)cc(F)c2)NC(=O)Cn2nc(C(F)(F)F)c3c2C(F)(F)[C@@H]2C[C@H]32)n1)S(C)(=O)=O [Compound 58, ((4-chloro-7-(2-((S)-1-(2-((3bS,4aR)-5,5-difluoro-3-(trifluoromethyl)-3b,4,4a,5-tetrahydro-1H-cyclopropa[3,4]cyclopenta[1,2-c]pyrazol-1-yl)acetamido)-2-(3,5-difluorophenyl)ethyl)-6-(3-methyl-3-(methylsulfonyl)but-1-yn-1-yl)pyridin-3-yl)-1-(2,2,2-trifluoroethyl)-1H-indazol-3-yl)(methylsulfonyl)carbamoyl)-L-serine]

solubility [1, 3]: 798 µg/mL (≈ 677 µM) | solubility [1, 4]: 819 µg/mL (≈ 694 µM) | pH 2 solubility [2]: 2 μM | pH 7 solubility [2]: 21 μM
SMILES: CC(C)(C#Cc1ccc(-c2ccc(Cl)c3c(N(C(=O)N[C@@H](COP(=O)(O)O)C(=O)O)S(C)(=O)=O)nn(CC(F)(F)F)c23)c([C@H](Cc2cc(F)cc(F)c2)NC(=O)Cn2nc(C(F)(F)F)c3c2C(F)(F)[C@@H]2C[C@H]32)n1)S(C)(=O)=O [Compound 59, N-((4-chloro-7-(2-((S)-1-(2-((3bS,4aR)-5,5-difluoro-3-(trifluoromethyl)-3b,4,4a,5-tetrahydro-1H-cyclopropa[3,4]cyclopenta[1,2-c]pyrazol-1-yl)acetamido)-2-(3,5-difluorophenyl)ethyl)-6-(3-methyl-3-(methylsulfonyl)but-1-yn-1-yl)pyridin-3-yl)-1-(2,2,2-trifluoroethyl)-1H-indazol-3-yl)(methylsulfonyl)carbamoyl)-O-phosphono-L-serine]

solubility [1, 3]: 364 µg/mL (≈ 311 µM) | solubility [1, 4]: 756 µg/mL (≈ 645 µM) | pH 2 solubility [2]: 1 μM | pH 7 solubility [2]: 14 μM
SMILES: CC(C)(C#Cc1ccc(-c2ccc(Cl)c3c(N(C(=O)N[C@@H](COC(=O)C(=O)O)C(=O)O)S(C)(=O)=O)nn(CC(F)(F)F)c23)c([C@H](Cc2cc(F)cc(F)c2)NC(=O)Cn2nc(C(F)(F)F)c3c2C(F)(F)[C@@H]2C[C@H]32)n1)S(C)(=O)=O [Compound 60, O-(carboxycarbonyl)-N-((4-chloro-7-(2-((S)-1-(2-((3bS,4aR)-5,5-difluoro-3-(trifluoromethyl)-3b,4,4a,5-tetrahydro-1H-cyclopropa[3,4]cyclopenta[1,2-c]pyrazol-1-yl)acetamido)-2-(3,5-difluorophenyl)ethyl)-6-(3-methyl-3-(methylsulfonyl)but-1-yn-1-yl)pyridin-3-yl)-1-(2,2,2-trifluoroethyl)-1H-indazol-3-yl)(methylsulfonyl)carbamoyl)-L-serine]

solubility [1, 3]: 425 µg/mL (≈ 377 µM) | solubility [1, 4]: 140 µg/mL (≈ 124 µM) | pH 2 solubility [2]: 1 μM | pH 7 solubility [2]: 10 μM
SMILES: CC(C)(C#Cc1ccc(-c2ccc(Cl)c3c(N(C(=O)N[C@](C)(CO)CC(=O)O)S(C)(=O)=O)nn(CC(F)(F)F)c23)c([C@H](Cc2cc(F)cc(F)c2)NC(=O)Cn2nc(C(F)(F)F)c3c2C(F)(F)[C@@H]2C[C@H]32)n1)S(C)(=O)=O [Compound 66, (S)-3-(3-(4-chloro-7-(2-((S)-1-(2-((3bS,4aR)-5,5-difluoro-3-(trifluoromethyl)-3b,4,4a,5-tetrahydro-1H-cyclopropa[3,4]cyclopenta[1,2-c]pyrazol-1-yl)acetamido)-2-(3,5-difluorophenyl)ethyl)-6-(3-methyl-3-(methylsulfonyl)but-1-yn-1-yl)pyridin-3-yl)-1-(2,2,2-trifluoroethyl)-1H-indazol-3-yl)-3-(methylsulfonyl)ureido)-4-hydroxy-3-methylbutanoic acid]

solubility [1, 3]: 700 µg/mL (≈ 613 µM) | solubility [1, 4]: 246 µg/mL (≈ 216 µM) | pH 2 solubility [2]: 1 μM | pH 7 solubility [2]: 18 μM
SMILES: CC(C)(C#Cc1ccc(-c2ccc(Cl)c3c(N(C(=O)N[C@@H](CCC(=O)O)C(=O)O)S(C)(=O)=O)nn(CC(F)(F)F)c23)c([C@H](Cc2cc(F)cc(F)c2)NC(=O)Cn2nc(C(F)(F)F)c3c2C(F)(F)[C@@H]2C[C@H]32)n1)S(C)(=O)=O [Compound 68, ((4-chloro-7-(2-((S)-1-(2-((3bS,4aR)-5,5-difluoro-3-(trifluoromethyl)-3b,4,4a,5-tetrahydro-1H-cyclopropa[3,4]cyclopenta[1,2-c]pyrazol-1-yl)acetamido)-2-(3,5-difluorophenyl)ethyl)-6-(3-methyl-3-(methylsulfonyl)but-1-yn-1-yl)pyridin-3-yl)-1-(2,2,2-trifluoroethyl)-1H-indazol-3-yl)(methylsulfonyl)carbamoyl)-L-glutamic acid]

Continued, compound first:

SMILES: CC(C)(C#Cc1ccc(-c2ccc(Cl)c3c(N(COC(=O)CN)S(C)(=O)=O)nn(CC(F)(F)F)c23)c([C@H](Cc2cc(F)cc(F)c2)NC(=O)Cn2nc(C(F)(F)F)c3c2C(F)(F)[C@@H]2C[C@H]32)n1)S(C)(=O)=O [Compound 29, (N-(4-chloro-7-(2-((S)-1-(2-((3bS,4aR)-5,5-difluoro-3-(trifluoromethyl)-3b,4,4a,5-tetrahydro-1H-cyclopropa[3,4]cyclopenta[1,2-c]pyrazol-1-yl)acetamido)-2-(3,5-difluorophenyl)ethyl)-6-(3-methyl-3-(methylsulfonyl)but-1-yn-1-yl)pyridin-3-yl)-1-(2,2,2-trifluoroethyl)-1H-indazol-3-yl)methylsulfonamido)methyl glycinate]
solubility [1, 3]: 6 µg/mL (≈ 5.69 µM) | solubility [1, 4]: 120 µg/mL (≈ 114 µM) | pH 2 solubility [2]: 54 μM | pH 7 solubility [2]: 4 μM

SMILES: CN(CC(=O)O)C(=O)N(c1nn(CC(F)(F)F)c2c(-c3ccc(C#CC(C)(C)S(C)(=O)=O)nc3[C@H](Cc3cc(F)cc(F)c3)NC(=O)Cn3nc(C(F)(F)F)c4c3C(F)(F)[C@@H]3C[C@H]43)ccc(Cl)c12)S(C)(=O)=O [Compound 44, N-((4-chloro-7-(2-((S)-1-(2-((3bS,4aR)-5,5-difluoro-3-(trifluoromethyl)-3b,4,4a,5-tetrahydro-1H-cyclopropa[3,4]cyclopenta[1,2-c]pyrazol-1-yl)acetamido)-2-(3,5-difluorophenyl)ethyl)-6-(3-methyl-3-(methylsulfonyl)but-1-yn-1-yl)pyridin-3-yl)-1-(2,2,2-trifluoroethyl)-1H-indazol-3-yl)(methylsulfonyl)carbamoyl)-N-methylglycine]
solubility [1, 3]: 10 µg/mL (≈ 9.23 µM) | solubility [1, 4]: 10 µg/mL (≈ 9.23 µM) | pH 2 solubility [2]: 1 μM | pH 7 solubility [2]: 9 μM

SMILES: CN(CCC(=O)O)C(=O)N(c1nn(CC(F)(F)F)c2c(-c3ccc(C#CC(C)(C)S(C)(=O)=O)nc3[C@H](Cc3cc(F)cc(F)c3)NC(=O)Cn3nc(C(F)(F)F)c4c3C(F)(F)[C@@H]3C[C@H]43)ccc(Cl)c12)S(C)(=O)=O [Compound 45, 3-(3-(4-chloro-7-(2-((S)-1-(2-((3bS,4aR)-5,5-difluoro-3-(trifluoromethyl)-3b,4,4a,5-tetrahydro-1H-cyclopropa[3,4]cyclopenta[1,2-c]pyrazol-1-yl)acetamido)-2-(3,5-difluorophenyl)ethyl)-6-(3-methyl-3-(methylsulfonyl)but-1-yn-1-yl)pyridin-3-yl)-1-(2,2,2-trifluoroethyl)-1H-indazol-3-yl)-1-methyl-3-(methylsulfonyl)ureido)propanoic acid]
solubility [1, 3]: 14 µg/mL (≈ 12.8 µM) | solubility [1, 4]: 1 µg/mL (≈ 0.911 µM) | pH 2 solubility [2]: 1 μM | pH 7 solubility [2]: 20 μM

SMILES: CN(CCCC(=O)O)C(=O)N(c1nn(CC(F)(F)F)c2c(-c3ccc(C#CC(C)(C)S(C)(=O)=O)nc3[C@H](Cc3cc(F)cc(F)c3)NC(=O)Cn3nc(C(F)(F)F)c4c3C(F)(F)[C@@H]3C[C@H]43)ccc(Cl)c12)S(C)(=O)=O [Compound 46, 4-(3-(4-chloro-7-(2-((S)-1-(2-((3bS,4aR)-5,5-difluoro-3-(trifluoromethyl)-3b,4,4a,5-tetrahydro-1H-cyclopropa[3,4]cyclopenta[1,2-c]pyrazol-1-yl)acetamido)-2-(3,5-difluorophenyl)ethyl)-6-(3-methyl-3-(methylsulfonyl)but-1-yn-1-yl)pyridin-3-yl)-1-(2,2,2-trifluoroethyl)-1H-indazol-3-yl)-1-methyl-3-(methylsulfonyl)ureido)butanoic acid]
solubility [1, 3]: 9 µg/mL (≈ 8.1 µM) | solubility [1, 4]: 3 µg/mL (≈ 2.7 µM) | pH 2 solubility [2]: 1 μM | pH 7 solubility [2]: 10 μM

SMILES: CC(C)(C#Cc1ccc(-c2ccc(Cl)c3c(N(C(=O)NC(C(=O)O)C(=O)O)S(C)(=O)=O)nn(CC(F)(F)F)c23)c([C@H](Cc2cc(F)cc(F)c2)NC(=O)Cn2nc(C(F)(F)F)c3c2C(F)(F)[C@@H]2C[C@H]32)n1)S(C)(=O)=O [Compound 53, 2-(3-(4-chloro-7-(2-((S)-1-(2-((3bS,4aR)-5,5-difluoro-3-(trifluoromethyl)-3b,4,4a,5-tetrahydro-1H-cyclopropa[3,4]cyclopenta[1,2-c]pyrazol-1-yl)acetamido)-2-(3,5-difluorophenyl)ethyl)-6-(3-methyl-3-(methylsulfonyl)but-1-yn-1-yl)pyridin-3-yl)-1-(2,2,2-trifluoroethyl)-1H-indazol-3-yl)-3-(methylsulfonyl)ureido)malonic acid]
solubility [1, 3]: 758 µg/mL (≈ 681 µM) | solubility [1, 4]: 370 µg/mL (≈ 332 µM) | pH 2 solubility [2]: 1 μM | pH 7 solubility [2]: 62 μM

SMILES: CC(C)(C#Cc1ccc(-c2ccc(Cl)c3c(N(C(=O)NC(CP(=O)(O)O)C(=O)O)S(C)(=O)=O)nn(CC(F)(F)F)c23)c([C@H](Cc2cc(F)cc(F)c2)NC(=O)Cn2nc(C(F)(F)F)c3c2C(F)(F)[C@@H]2C[C@H]32)n1)S(C)(=O)=O (stereo partly drawn) [Compound 56, 2-(3-(4-chloro-7-(2-((S)-1-(2-((3bS,4aR)-5,5-difluoro-3-(trifluoromethyl)-3b,4,4a,5-tetrahydro-1H-cyclopropa[3,4]cyclopenta[1,2-c]pyrazol-1-yl)acetamido)-2-(3,5-difluorophenyl)ethyl)-6-(3-methyl-3-(methylsulfonyl)but-1-yn-1-yl)pyridin-3-yl)-1-(2,2,2-trifluoroethyl)-1H-indazol-3-yl)-3-(methylsulfonyl)ureido)-3-phosphonopropanoic acid]
solubility [1, 3]: 1080 µg/mL (≈ 930 µM) | solubility [1, 4]: 1590 µg/mL (≈ 1370 µM) | pH 2 solubility [2]: 3 μM | pH 7 solubility [2]: 42 μM
